Experimental findings from ChEMBL document CHEMBL1140916, “Structure-activity relationship of new anti-hepatitis C virus agents: heterobicycle-coumarin conjugates” (J Med Chem, 2009) are described below.

Structures are written as SMILES. pEC50: −log10 of the molar value.

A short description of series [1]: Cytotoxicity against HCV infected human Huh5-2 cells assessed as microscopically detectable alteration in cell morphology after 3 days. Format: cell-based, Huh-5-2. The note with it: HCV infected Huh5-2 cells.
Series [2] in a line: Selectivity index, ratio of CC50 for human Huh 5-2 cells to EC50 for HCV.
Another series has as its system Hepatitis C virus. Kind of series: Antiviral activity against HCV infected in human Huh5-2 cells assessed as reduction of virus-induced cytopathogenicity after 4 days. Format: functional, organism-based, Hepacivirus hominis. The note with it: Huh-5-2, 96 h.

For `COc1cccc2cc(CSc3nc4ccccc4n3[C@H]3C[C@@H](OC(C)=O)[C@H](OC(C)=O)[C@@H](COC(C)=O)O3)c(=O)oc12`, the CC50 at 72 h in series [1] turned out to be 26 µM. The “Ratio CC50/EC50” value in series [2] is recorded as 2.2. The pEC50 with Hepatitis C virus is 4.92.
In the same order, the values of `CC(=O)OC[C@H]1O[C@@H](n2c(SCc3ccc([N+](=O)[O-])cc3)nc3ccccc32)[C@H](OC(C)=O)[C@@H](OC(C)=O)[C@@H]1OC(C)=O` are 83 µM, 1.3 and 4.20.
In the same order, the values of `O=c1oc2ccccc2cc1CSc1nc2cncnc2[nH]1` are 109 µM, 54 and 5.70.
Consider `O=c1oc2ccc(Br)cc2cc1CSc1nc2cccnc2[nH]1`, for which the CC50 at 72 h in series [1] worked out at 128 µM. For the same molecule, the “Ratio CC50/EC50” value in series [2] worked out at 19. Further, the pEC50 in the series on Hepatitis C virus is 5.17.
The corresponding values for `Cc1ccc2[nH]c(SCc3ccncc3)nc2c1` are 199 µM, 1 and 3.70.
In the same order, the values of `CC(=O)OC[C@H]1O[C@@H](n2c(=S)[nH]c3ccccc32)[C@H](OC(C)=O)[C@@H](OC(C)=O)[C@@H]1OC(C)=O` are 104 µM, 1 and 3.98.
The corresponding values for `O=c1oc2ccccc2cc1CSc1nc2cccnc2[nH]1` are 95 µM, 1.6 and 4.23.
Consider `c1ccc2cc(CSc3nc4ccccc4[nH]3)ccc2c1`, for which, in series [1], the CC50 at 72 h was 56 µM. Further, the “Ratio CC50/EC50” value in series [2] was 0.73. In addition, the pEC50 in the series with Hepatitis C virus was 4.12.
The corresponding values for `Fc1ccc2[nH]c(SCc3ccccc3)nc2c1` are 197 µM, 1 and 3.71.
In the case of `Clc1cc2nc(SCc3ccncc3)[nH]c2cc1Cl`, the CC50 at 72 h in series [1] was 107 µM. Further, in series [2], the “Ratio CC50/EC50” value is listed as 1.1. Besides, the pEC50 in the series with Hepatitis C virus was 4.00.
In the same order, the values of `O=c1oc2ccccc2cc1CSc1nc2ccccc2[nH]1` are 90 µM, 3.4 and 4.57.
In the same order, the values of `COc1cccc2cc(CSc3nc4ccccc4[nH]3)c(=O)oc12` are 27 µM, 2.8 and 5.00.
In the same order, the values of `O=c1oc2ccccc2cc1CSc1nc2ccccc2s1` are 153 µM, 1.9 and 4.10.
Consider `O=c1oc2ccc(Br)cc2cc1CSc1nc2ccccc2o1`, for which, in series [1], the CC50 at 72 h worked out at 131 µM. Also, the “Ratio CC50/EC50” value in series [2] was found to be 11. Moreover, in the series on Hepatitis C virus, the pEC50 was 4.92.
In the same order, the values of `COc1cccc2cc(CSc3nc4ccccc4s3)c(=O)oc12` are 40 µM, 1.4 and 4.54.
The corresponding values for `O=c1oc2ccccc2cc1CSc1nc2ccccc2o1` are 45 µM, 3.9 and 4.92.
In the same order, the values of `COc1cccc2cc(CSc3nc4cncnc4[nH]3)c(=O)oc12` are 94 µM, 4.8 and 4.70.
Take `CC(=O)OC[C@H]1O[C@@H](n2c(SCc3cc4cc(Br)ccc4oc3=O)nc3ccccc32)C[C@@H](OC(C)=O)[C@@H]1OC(C)=O`: in series [1], the CC50 at 72 h worked out at 16 µM. In series [2], the “Ratio CC50/EC50” value was determined as 4. Further, in the series with Hepatitis C virus, the pEC50 is 5.39.
The corresponding values for `CC(=O)OC[C@H]1O[C@@H](n2c(SCc3cc4cc(Br)ccc4oc3=O)nc3cc(Cl)c(Cl)cc32)C[C@@H](OC(C)=O)[C@@H]1OC(C)=O` are 11 µM, 6.4 and 5.74.
In the same order, the values of `COc1cccc2cc(CSc3nc4cccnc4[nH]3)c(=O)oc12` are 30 µM, 2.8 and 4.96.
With `O=c1oc2ccccc2cc1CSc1nc2cc(Cl)c(Cl)cc2[nH]1`, the CC50 at 72 h in series [1] came to 74 µM. The “Ratio CC50/EC50” value in series [2] was found to be 4.9. Also, in the series with Hepatitis C virus, the negative logarithm of the EC50 (pEC50) was 4.82.
Take `COc1cccc2cc(CSc3nc4ccccc4o3)c(=O)oc12`: the CC50 at 72 h in series [1] is 18 µM. The “Ratio CC50/EC50” value in series [2] is given as 0.96. Besides, in the series with Hepatitis C virus, the pEC50 is 4.72.
On to `Fc1ccc2[nH]c(SCc3ccncc3)nc2c1`, for which the CC50 at 72 h in series [1] was found to be 196 µM. In series [2], the “Ratio CC50/EC50” value is 1.1. Also, the pEC50 in the series with Hepatitis C virus is 3.74.

By CC50 is commonly meant the concentration giving 50% cytotoxicity. As usually defined, the pEC50 is the EC50 on a negative log10 scale, so that one unit is a factor of ten.
